From US20180209956A1, “HTS Assay for Identifying Small Molecule Inhibitors of RAD52 and Uses of Identified Small Molecule Inhibitors for Treatment and Prevention of BRCA-Deficient Malignancies” (University of Iowa Research Foundation, priority 2015, published 2018)

Experiments:
RPA = molecular target: T1, RPA (Homo sapiens, UniProt P15927+P27694+P35244); experiment: WaterLOGSY NMR analysis of compound binding to RPA; conditions: 20 or 40 μM compound, 3.3 μM RPA
T1 construct: made in house
Source text: Compounds ‘1’ and ‘6’ physically interact with RAD52: To confirm that the selected compounds bind RAD52, we employed water-ligand observation with gradient spectroscopy (WaterLOGSY), an NMR technique, which is based on transfer of magnetization from bulk water to the protein-bound compound of interest (Dalvit et al., 2001, Dalvit et al., 2000). In WaterLOGSY spectrum, if a compound binds to a protein, the compound will receive negative nuclear Overhauser effects (NOEs) due to the slow tumbling of the protein-compound complex, leading to a positive WaterLOGSY peak.
WaterLOGSY NMR analysis of the compound binding to RAD52 and RPA proteins: Compound binding to RAD52 and RPA proteins was analyzed using water-ligand observation with gradient spectroscopy (WaterLOGSY) NMR experiments (Dalvit et al., 2001, Dalvit et al., 2000). The WaterLOGSY spectra of compounds in the presence of RAD52 or RPA were acquired using a water NOE mixing time of 1 s and a T2 relaxation filter of 50 ms just before data acquisition to suppress the broad signals derived from protein. The protein buffer used in the experiments contains 10 mM Tris-d11, 75 mM KCl, 0.25 mM EDTA, pH 7.5, and 10% D20. All NMR data were acquired on a Bruker Avance II 800 MHz NMR spectrometer equipped with a sensitive cryoprobe and recorded at 25° C. The ^1H chemical shifts were referenced to 2,2-dimethyl-2-silapentane-5-sulfonate (DSS). NMR spectra were processed using NMR Pipe (Delaglio et al., 1995) and analysed using NMR View (Johnson and Blevins, 1994).

RPA-ssDNA interaction = molecular target: T2, RPA-ssDNA interaction (Homo sapiens, UniProt P15927+P27694+P35244); experiment: FRET titration of the RPA-Cy3-dT30-Cy5 complex; assay type: binding
T2 construct: made in house
T2 sequence (P27694 whole entry): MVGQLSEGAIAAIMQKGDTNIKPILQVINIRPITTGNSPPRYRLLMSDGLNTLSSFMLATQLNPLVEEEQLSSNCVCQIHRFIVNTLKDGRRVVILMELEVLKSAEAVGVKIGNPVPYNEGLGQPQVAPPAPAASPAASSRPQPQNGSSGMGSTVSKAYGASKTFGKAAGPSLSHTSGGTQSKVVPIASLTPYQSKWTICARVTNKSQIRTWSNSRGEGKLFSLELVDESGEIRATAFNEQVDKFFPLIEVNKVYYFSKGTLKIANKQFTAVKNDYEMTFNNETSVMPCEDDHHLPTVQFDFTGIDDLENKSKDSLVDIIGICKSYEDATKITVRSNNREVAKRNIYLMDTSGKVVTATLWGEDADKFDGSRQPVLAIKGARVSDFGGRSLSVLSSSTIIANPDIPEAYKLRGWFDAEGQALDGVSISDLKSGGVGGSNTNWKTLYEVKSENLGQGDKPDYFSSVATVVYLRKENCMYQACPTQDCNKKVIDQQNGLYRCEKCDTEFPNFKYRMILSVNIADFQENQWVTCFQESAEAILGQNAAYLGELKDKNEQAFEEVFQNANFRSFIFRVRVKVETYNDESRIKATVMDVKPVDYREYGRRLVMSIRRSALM
T2 sequence (P15927 whole entry): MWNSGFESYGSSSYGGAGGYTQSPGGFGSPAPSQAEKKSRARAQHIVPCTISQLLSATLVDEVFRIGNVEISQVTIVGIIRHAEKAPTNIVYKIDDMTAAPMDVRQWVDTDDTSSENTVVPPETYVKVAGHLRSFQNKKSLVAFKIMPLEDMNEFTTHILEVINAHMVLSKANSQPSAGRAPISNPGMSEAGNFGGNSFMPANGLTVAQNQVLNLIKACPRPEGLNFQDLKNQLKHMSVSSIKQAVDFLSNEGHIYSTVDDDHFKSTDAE
T2 sequence (P35244 whole entry): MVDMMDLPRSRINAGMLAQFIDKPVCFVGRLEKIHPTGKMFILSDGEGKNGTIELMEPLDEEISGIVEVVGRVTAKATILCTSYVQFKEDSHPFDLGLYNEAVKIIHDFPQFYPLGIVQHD
Source text: Compounds ‘1’ and ‘6’ inhibit RAD52 binding to and annealing of the RPA-coated ssDNA: In the cell, ssDNA is typically found in complex with Replication protein A (RPA), which is the major eukaryotic ssDNA-binding protein essential for DNA replication, repair and recombination (Wold, 1997, Oakley and Patrick, 2010, Chen and Wold, 2014). The RPA-ssDNA complex is a natural substrate for the RDA52-mediated strand annealing. To confirm that compounds ‘1’ and ‘6’ can inhibit the RAD52 binding to and annealing of the RPA-coated ssDNA we added stoichiometric amounts of RPA (1 RPA per 30 nucleotides of ssDNA) to the FRET-based ssDNA binding/wrapping and ssDNA annealing experiments described above. RPA binds ssDNA with high affinity and extends the ssDNA to its contour length. In our assays such an extension manifests as a distinct FRET state of ˜0.3, which is readily distinguished from a FRET state of ˜0.48 of free Cy3-dT30-Cy5 ssDNA, as well as ˜0.63 FRET of the stoichiometric ssDNA-RPA-RAD52 complex (see FIG. 2 Supplement 1 and (Grimme and Spies, 2011) for details). […] Both, however, inhibited the RAD52 binding to and wrapping of RPA-coated ssDNA with IC50 values identical to those determined without RPA (FIG. 2e and FIG. 3e).
where FRET0 is the initial FRET value of RAD52-ssDNA complex in the absence of the compound and FRETmin is the FRET value at complete inhibition. FRET values were calculated as an average of three or more independent annealing reactions plotted against the concentration of the compound. Inhibition of the RAD52-dsDNA interaction was assayed in a similar experiment, except the stoichiometric complexes containing 1 nM molecules of Cy3-Oligo28-Cy5 duplex DNA and 10 nM RAD52. […] In all experiments, the FRET values for each data point were corrected for the effects of the compounds on the respective substrate in the absence of RAD52.

GM01604 cells = experiment: Neutral comet assay of RAD52/MUS81-dependent DSB formation; assay type: cell-based, human; conditions: for IC50 for decrease of mean tail moment following HU treatment, in words: 2 mM HU + 300 nM UCN01, 6 h
Source text: Inhibiting the RAD52-ssDNA interaction interferes with RAD52/MUS81-mediated DSB formation essential for the replication fork recovery in check point deficient cells: In human cells, RAD52 may perform both limited recombination-mediator function in the RAD51-dependent pathway (Lok and Powell, 2012, Benson et al., 1998, Feng et al., 2011) as well as additional RAD51-independent roles (Lok and Powell, 2012, Murfuni et al., 2013, Mcllwraith and West, 2008). One of these HR independent roles of RAD52 involves stimulation of MUS81/EME1-dependent DSB formation at the replication forks stalled by hydroxyurea (HU) treatment in the absence of cellular checkpoints (Murfuni et al., 2013). Since the most likely targets of these MUS81/EME1/RAD52-dependent DSBs are the DNA structures produced by RAD52 (Murfuni et al., 2013), we expected this activity to depend on the RAD52-ssDNA interaction (FIG. 5a). To confirm this, we assessed DSB formation in the checkpoint deficient cells using the neutral comet assay. These assays monitor MUS81/EME1/RAD52-dependent DSB formation upon induction of replication stress by HU treatment in primary fibroblasts immortalized by hTERT expression and treated with UNC01 to inhibit CHK1 kinase (FIG. 5b). […] Importantly, these inhibitors recapitulate RAD52 depletion by inhibiting RAD52-MUS81-dependent DSBs at stalled replication forks (FIG. 5a-b). […] It also confirms our previous supposition that the target of MUS81/EME1-mediated cleavage under these conditions are indeed the structures annealed by RAD52. […] We previously reported that concomitant depletion of RAD52 and MUS81 gives raise to the MUS81-independent DSBs (Murfuni et al., 2013). […] Furthermore, accumulation of anaphase bridges, a phenotype associated with impairment of the RAD52-independent mitotic function of MUS81/EME1 was completely unaffected by inhibition of RAD52, whereas it was strongly stimulated by MUS81 silencing (FIG. 5 Supplement 1).
Neutral Comet Assay: To induce RAD52-MUS81-dependent cleavage at arrested replication forks (Murfuni et al., 2013), hTERT-immortalized wild-type human fibroblasts (GM01604) were treated with 2 mM HU and 300 nM UCN01 for 6 h, in the presence and absence of varying concentrations of ‘1’ or ‘6’. Where indicated, the GM01604 cells were cells were transfected with siRNAs directed against GFP (Ctrl), or against RAD52 (Qiagen) 48 hours prior to induction of the replication stress and/or inhibitor treatment. After that cells were subjected to neutral comet assay as described in Murfuni et al (Murfuni et al., 2013). Slides were analyzed by a computerized image analysis system (Comet IV, Perceptive UK). To assess the quantity of DNA damage, computer-generated tail moment values (tail length×fraction of total DNA in the tail) were used. Apoptotic cells (smaller comet head and extremely larger comet tail) were excluded from the analysis to avoid artificial enhancement of tail moment. A minimum of 100 cells were analyzed for each compound concentration point.

T1 sequence (P27694 whole entry): as the sequence (P27694 whole entry) above
T1 sequence (P15927 whole entry): as the sequence (P15927 whole entry) above
T1 sequence (P35244 whole entry): as the sequence (P35244 whole entry) above

Row | SMILES | Binding to RPA by WaterLOGSY (RPA) | Effect on the RPA-ssDNA interaction (RPA-ssDNA interaction) | IC50 for decrease of mean tail moment following HU treatment, in words (GM01604 cells) | Concentration sufficient to achieve the same level in DSB reduction as siRNA treatment (GM01604 cells; HU + UCN01) | DSB formation in RAD52-depleted cells (GM01604 cells; RAD52 siRNA plus compound) | Reduction in DSBs compared with siRNA depletion of RAD52 (GM01604 cells; 500 nM compound, HU + UCN01) | DSB formation in MUS81-depleted cells (GM01604 cells; replication stress induced by CHK1 inhibition)
1 | O=C(O[C@@H]1Cc2c(O)cc(O)cc2O[C@@H]1c1cc(O)c(O)c(O)c1)c1cc(O)c(O)c(O)c1 [Compound 6, Epigallocatechin-3-monogallate] | binds to RPA | does not interfere with the RPA-ssDNA interaction | mid nanomolar to low micromolar | higher concentration | failed to further decrease the formation of DNA breaks | – | –
2 | Oc1cc(O)c2c(c1)O[C@H](c1cc(O)c(O)c(O)c1)[C@H](O)C2 [Compound ‘1’, (−)-Epigallocatechin] | neither binds to RPA | nor interferes with the RPA-ssDNA interaction | mid nanomolar to low micromolar | 1 µM | – | same effect of reduction in DSBs as siRNA depletion of RAD52 | appearance of the MUS81-independent DSBs
